Laboratory results: the supplement of paper PMC11451515

How the values were obtained:
Details in all cases: 48 h
NOMO1 [1] = experiment: cell viability relative to DMSO control; higher = less cytotoxic
How it was run: (§1)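 Viability values are per-plate percentages of DMSO wells, with background from cell-free wells. Library compounds in DMSO were pin-dosed, in an 11-point threefold series from 47 μM to 0.79 nM, onto NOMO1 or SEM (500 cells/well) or P12-Ichikawa (1000 cells/well) leukemia cells in 1536-well plates (5 μl). Those cells had been adapted for at least four passages in each medium, and CellTiter-Glo One luminescence was read after 48 h at 37°C.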

P12-Ichikawa [2] = experiment: as above
How it was run: as §1

SEM cells [3] = experiment: as above
How it was run: as §1

NOMO1 [4] = experiment: AUC of viability dose-response curve (% viability x log10 dose units); higher = less sensitive
How it was run: (§2)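 Leukemia cells adapted to each medium were seeded in 1536-well plates (500 or 1000 cells/well) and given library compounds in DMSO for 48 h at 37°C. The 11 threefold doses spanned 47 μM to 0.79 nM, and CellTiter-Glo One luminescence was normalised per plate to DMSO and cell-free wells before four-parameter log-logistic fitting on log10 dose. Area under the curve was integrated with the trapezoidal rule, scaling curves above full viability and removing curves that failed quality control.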

P12-Ichikawa [5] = experiment: as above
How it was run: as §2

SEM cells [6] = experiment: as above
How it was run: as §2

O=NN(CCCl)C(=O)NCCCl
cell viability [%]
Details	NOMO1 [1]	P12-Ichikawa [2]	SEM cells [3]
HPLM + 10% dialyzed FBS, 0.000781 µM	89.1	87	75.9
HPLM + 10% dialyzed FBS, 0.00234 µM	107	94.8	89
HPLM + 10% dialyzed FBS, 0.00702 µM	99.1	108	117
HPLM + 10% dialyzed FBS, 0.0211 µM	116	103	86.6
HPLM + 10% dialyzed FBS, 0.0632 µM	128	103	100
HPLM + 10% dialyzed FBS, 0.19 µM	113	114	121
HPLM + 10% dialyzed FBS, 0.569 µM	127	100	107
HPLM + 10% dialyzed FBS, 1.71 µM	101	101	121
HPLM + 10% dialyzed FBS, 5.12 µM	106	102	94.1
HPLM + 10% dialyzed FBS, 15.4 µM	127	104	110
HPLM + 10% dialyzed FBS, 46.1 µM	109	95.2	85.8
RPMI 5 mM glucose + 10% FBS, 0.000781 µM	84.4	83.3	85.4
RPMI 5 mM glucose + 10% FBS, 0.00234 µM	99.3	97.9	105
RPMI 5 mM glucose + 10% FBS, 0.00702 µM	102	100	104
RPMI 5 mM glucose + 10% FBS, 0.0211 µM	104	96.3	110
RPMI 5 mM glucose + 10% FBS, 0.0632 µM	118	109	121
RPMI 5 mM glucose + 10% FBS, 0.19 µM	116	100	119
RPMI 5 mM glucose + 10% FBS, 0.569 µM	107	97.2	119
RPMI 5 mM glucose + 10% FBS, 1.71 µM	120	93.6	125
RPMI 5 mM glucose + 10% FBS, 5.12 µM	110	103	129
RPMI 5 mM glucose + 10% FBS, 15.4 µM	110	99.3	118
RPMI 5 mM glucose + 10% FBS, 46.1 µM	101	98.6	102
RPMI 5 mM glucose + 10% dialyzed FBS, 0.000781 µM	91.4	87	80.1
RPMI 5 mM glucose + 10% dialyzed FBS, 0.00234 µM	94.5	95.8	88.3
RPMI 5 mM glucose + 10% dialyzed FBS, 0.00702 µM	109	104	100
RPMI 5 mM glucose + 10% dialyzed FBS, 0.0211 µM	112	99.7	87.4
RPMI 5 mM glucose + 10% dialyzed FBS, 0.0632 µM	101	106	113
RPMI 5 mM glucose + 10% dialyzed FBS, 0.19 µM	98.9	99.7	108
RPMI 5 mM glucose + 10% dialyzed FBS, 0.569 µM	108	94.6	102
RPMI 5 mM glucose + 10% dialyzed FBS, 1.71 µM	109	100	117
RPMI 5 mM glucose + 10% dialyzed FBS, 5.12 µM	102	97.2	111
RPMI 5 mM glucose + 10% dialyzed FBS, 15.4 µM	109	102	107
RPMI 5 mM glucose + 10% dialyzed FBS, 46.1 µM	97.9	100	84.3

AUC of viability dose-response curve
Details	NOMO1 [4]	P12-Ichikawa [5]	SEM cells [6]
HPLM + 10% dialyzed FBS	462	465	463
RPMI 5 mM glucose + 10% FBS	461	471	455
RPMI 5 mM glucose + 10% dialyzed FBS	463	472	456
